Measured values taken from the NIST ThermoML archive (doi:10.1016/j.tca.2016.09.005).

Assay: xn = mol fraction of the nth substance listed
Details: 100 kPa, Liquid; for speed of sound: Frequency=3 MHz, Sing-around technique in a fixed-path interferometer; for mass density: Vibrating tube method

OCCCO [propan-1,3-diol] + CCO
Details	mass density, 303.15 K [kg/m3]	mass density, 313.15 K [kg/m3]	speed of sound, 303.15 K [m/s]	speed of sound, 313.15 K [m/s]
x2 = 0	1046.36	1040.07	1613.6	1591.1
x2 = 0.05	1037.07	1030.71	1595.7	1572.9
x2 = 0.1	1027.48	1021.03	1576.5	1553.2
x2 = 0.15	1017.39	1010.85	1556.8	1533.1
x2 = 0.2	1006.78	999.86	1536.5	1511
x2 = 0.2499	996.35	989.64	1515.3	1490.6
x2 = 0.3004	985.17	978.36	1493.3	1468.1
x2 = 0.3502	973.69	966.78	1470.9	1445.3
x2 = 0.4	961.9	954.88	1447.8	1421.7
x2 = 0.4501	949.5	942.36	1423.8	1397.1
x2 = 0.5004	936.66	929.42	1399	1371.7
x2 = 0.5501	923.88	916.52	1374.6	1346.8
x2 = 0.6001	910.16	902.67	1348.8	1320.4
x2 = 0.65	896.16	888.54	1323.2	1294.2
x2 = 0.7	881.42	873.66	1296.4	1266.8
x2 = 0.7503	866.15	858.23	1269.4	1239.1
x2 = 0.8001	850.47	842.41	1242	1211.1
x2 = 0.8502	833.92	825.7	1214.2	1182.7
x2 = 0.9	817.24	808.85	1186.3	1154
x2 = 0.95	799.79	791.23	1157.9	1125
